According to patent publication US20120329865A1, “MOLECULES RELATED hERG ION [sequence] AND THE USE THEREOF” (priority 2009, published 2012):
Entries after “also recorded” stand apart in the source; their conditions may differ. Read-outs that look alike come from different tables or passages of the source.

Assays:
hERG channel = hERG channel (Homo sapiens, UniProt Q12809); assay: Automated patch clamp recording using IonWorks, CHO-hERG cells; conditions: 50 micromolar; tail current at -35 mV after +40 mV depolarization
Method: CHO-K1 cells stably expressing hERG channel (CHO-hERG) were cultured in T175 flask till about 70% confluent. Cells were washed twice with PBS, then 2.5 ml 0.25% Trypsin/EDTA was mixed with 2.5 ml PBS and added to the T175 flask. Cells were incubated about 2 minutes with the diluted Trypsin/EDTA solution at 37° C., then were continuously incubated about 3 minutes at room temperature. 20 ml fresh medium were added to suspend the cells and transfer to a 50 ml tube. Cells were centrifuged down at 750 rpm for 5 minutes. The extra medium was removed and cells were resuspended in 6 ml External Buffer (137 mM NaCl, 4 mM KCl, 1.8 mM CaCl2, 1 mM MgCl2, 10 mM HEPES, 10 mM glucose, pH 7.4). Then cells were centrifuged again at 450 rpm for another 5 minutes. Finally cells were resuspended in 4 ml the External Buffer, cell number was counted using a hemacytometer. Cell suspension was diluted to 2.5×10^6 cells/ml with the External Buffer. 4 ml of the resuspended cells were added to the cell reservoir in IonWorks. The Internal solution used contains: 40 mM KCl, 100 mM K-Gluconate, 3.2 mM MgCl2, 2 mM CaCl2, 5 mM HEPES, pH 7.25 (adjusted with KOH). […]
hERG currents were recorded on IonWorks Quattro (Molecular Devices). […] Tail currents were measured during an ensuing return to −35 mV. […]

hERG ion channels [1] = biological target: T1, hERG ion channels (Homo sapiens, UniProt Q12809); assay: Rb+ flux assay using HEK-hERG cells; conditions: 5 mM KCl, modulators at 10 or 50 micromolar (FIG. 3)
Method: Briefly, 50,000 cells per well were plated in 96-well tissue culture treated plates 20 hours before assay. In the next day, cells were incubated with complete cell culture medium containing 5 mM RbCl for 3 hours at 37° C. with 5% CO2. Then compounds (10×) diluted in HBSS were added into the cell culture medium and cells were incubated at 37° C. with 5% CO2 for another hour. Cells were washed twice with Rb^+ free cell culture medium and incubated with 180 μl/well of cell culture medium containing different concentration of KCl for exactly 10 minutes. The supernatant from each well was transferred to a new 96 well plate immediately. Cells were lysed with 180 μl/well 0.5% Triton100 in HBSS. The Rb^+ concentration of each sample was determined by ICR8000 (Aurora Biomed Inc.).

hERG ion channels [2] = biological target: T1, hERG ion channels; assay: DMR antagonism mode: modulation of the mallotoxin DMR signal in HT29 cells; conditions: for effect on the mallotoxin DMR signal in HT29 cells (in words): antagonism assay; for score of modulation index, HT29 coordinate: score assigned from % modulation of mallotoxin DMR (10% = 1)
hERG ion channels [3] = biological target: T1, hERG ion channels; assay: DMR antagonism mode: modulation of the mallotoxin DMR signal in HEK-hERG cells; conditions: for score of modulation index, HEK-hERG coordinate: score assigned from % modulation of mallotoxin DMR (10% = 1); for effect on the mallotoxin DMR signal in HEK-hERG cells (in words): antagonism assay
hERG ion channels [4] = biological target: T1, hERG ion channels; assay: Label-free RWG biosensor (Epic) DMR assay, agonism mode, HEK-hERG cells stably expressing hERG; conditions: 10 micromolar
Source text: (§2) Using the RWG biosensor Corning® Epic® system, all compounds were systematically characterized for their ability to modulate hERG ion channels in live cells. The Epic® system consists of a temperature-control unit, an optical detection unit, with an on-board liquid handling unit with robotics, or an external liquid accessory system with robotics. The detection unit is centered on integrated fiber optics, and enables kinetic measures of cellular responses with a time interval of ˜7 or 15 sec. The compound solutions were introduced by using either the on-board liquid handling unit, or the external liquid accessory system; both of which use conventional pippetting system.
(§3) Epic® wavelength interrogation system (Corning Inc., Corning, N.Y.) was used for whole cell sensing. This system consists of a temperature-control unit, an optical detection unit, and an on-board liquid handling unit with robotics. The detection unit is centered on integrated fiber optics, and enables kinetic measures of cellular responses with a time interval of ˜15 sec.
(§4) Cells were plated in 384-well Epic® cell culture treated plate (Corning Cat#5040) 16-20 hours before assay (15000 cells/well for HEK293 and HEK-hERG cells, 30000 cells/well for HT29 cells). For both HEK-hERG and its parental HEK293 cells, each well was coated with 10 μl 5 μg/ml fibronectin. One hour before assay, cells were washed twice on a BioTek ELx405 Select washer with Hank's Balanced Salt Solution (HBSS) containing 20 mM Hepes. Cells were incubated in 40 μl/well HBSS at 28° C. inside the Epic system for one hour. For each assay, a 2-min baseline was initiated, followed by addition of 10 μl compound solutions (5×) and the cell responses were recorded continuously for one hour.
(§5) All studies were carried out at a controlled temperature (28° C.). At least two independent sets of experiments, each with at least three replicates, were performed. […] All dose-dependent responses were analyzed using non-linear regression method with the GraphPad Prism 5.
(§6) In a specific approach, any compound can be profiled in three different types of cells, HT29, HEK-hERG, and HEK-293 cells, in both agonism and antagonism modes. The human colon cancerous cell line HT-29 is known to endogenously express hERG channels. HEK293 is a native cell line without endogenously expressed hERG channels, while HEK-hERG is an engineered HEK293 cell having stably expressed hERG channels.

hERG ion channels [5] = biological target: T1, hERG ion channels; assay: Label-free RWG biosensor (Epic) DMR assay, agonism mode, HT29 cells endogenously expressing hERG; conditions: 10 micromolar
Source text: as §2, §3, §4, §5, §6

hERG ion channels [6] = biological target: T1, hERG ion channels; assay: Label-free biosensor hERG modulator classification from profiles in HT29, HEK-hERG and HEK293 cells plus mallotoxin modulation; conditions: label-free biosensor cellular assays
Source text: (§7) Label-free RWG biosensor cellular assays were developed to directly assaying the activation and its subsequent signaling of hERG channels without applying voltages to the cells. […] Generally, the disclosed methods to characterize modulators acting directly through hERG ion channel, or indirectly via hERG-associated signaling complexes are related to label-free biosensor cellular assays. Disclosed is the use of three types of cells: a cancerous cell line endogenously expressing hERG ion channels, a native cell line without endogenous hERG channels and its engineered cell line overexpressing hERG channels, for characterizing hERG modulators. Also disclosed is the use of mallotoxin or other hERG activator as a readout to further confirm the modes of action of hERG modulators.
as §6

hERG ion channels [7] = biological target: T1, hERG ion channels
Source text: as §7, §6

HT29 = assay: Cell proliferation assay (CellTiter-Glo) in HT29; type: cell-based, human; conditions: for cytotoxicity on cancer cell line HT29: 25 micromolar, in vitro culture; for cell apoptosis or alteration in cell proliferation rate, HT29: 48 h exposure
Method: (§1) Proliferation was measured using the CellTiter-Glo Luminescent Cell Viability Assay (Technical Bulletin #288, Promega, Madison, Wis.). When added to cells, the assay reagent produces luminescence in the presence of ATP from viable cells. Cells were plated in 96-well Corning Costar TCT (tissue culture treated) plates at a density of 10,000 cells/well and incubated for 24 h. Test samples were solubilized in dimethyl sulfoxide (DMSO) by sonication, filter sterilized and diluted with media to the desired treatment concentration. Cells were treated with 100 μl control media, or test samples, and incubated for 48 h drug exposure duration. At the end of 48 h, plates were equilibrated at room temperature for 30 min, 100 μl of the assay reagent was added to each well and cell lysis was induced on an orbital shaker for 2 min. Plates were incubated at room temperature for 10 min to stabilize the luminescence signal and results were read on an Perkin Elmer Vector 3 Microplate Reader. All plates had control wells containing medium without cells to obtain a value for background luminescence. Data are expressed as for three replications.

MCF7 = assay: Cell proliferation assay (CellTiter-Glo) in MCF7; type: cell-based; conditions: 48 h exposure; data not shown
Method: as §1

[8] = molecule 10 micromolar, mallotoxin 16 micromolar

T1 sequence (Q12809 whole entry): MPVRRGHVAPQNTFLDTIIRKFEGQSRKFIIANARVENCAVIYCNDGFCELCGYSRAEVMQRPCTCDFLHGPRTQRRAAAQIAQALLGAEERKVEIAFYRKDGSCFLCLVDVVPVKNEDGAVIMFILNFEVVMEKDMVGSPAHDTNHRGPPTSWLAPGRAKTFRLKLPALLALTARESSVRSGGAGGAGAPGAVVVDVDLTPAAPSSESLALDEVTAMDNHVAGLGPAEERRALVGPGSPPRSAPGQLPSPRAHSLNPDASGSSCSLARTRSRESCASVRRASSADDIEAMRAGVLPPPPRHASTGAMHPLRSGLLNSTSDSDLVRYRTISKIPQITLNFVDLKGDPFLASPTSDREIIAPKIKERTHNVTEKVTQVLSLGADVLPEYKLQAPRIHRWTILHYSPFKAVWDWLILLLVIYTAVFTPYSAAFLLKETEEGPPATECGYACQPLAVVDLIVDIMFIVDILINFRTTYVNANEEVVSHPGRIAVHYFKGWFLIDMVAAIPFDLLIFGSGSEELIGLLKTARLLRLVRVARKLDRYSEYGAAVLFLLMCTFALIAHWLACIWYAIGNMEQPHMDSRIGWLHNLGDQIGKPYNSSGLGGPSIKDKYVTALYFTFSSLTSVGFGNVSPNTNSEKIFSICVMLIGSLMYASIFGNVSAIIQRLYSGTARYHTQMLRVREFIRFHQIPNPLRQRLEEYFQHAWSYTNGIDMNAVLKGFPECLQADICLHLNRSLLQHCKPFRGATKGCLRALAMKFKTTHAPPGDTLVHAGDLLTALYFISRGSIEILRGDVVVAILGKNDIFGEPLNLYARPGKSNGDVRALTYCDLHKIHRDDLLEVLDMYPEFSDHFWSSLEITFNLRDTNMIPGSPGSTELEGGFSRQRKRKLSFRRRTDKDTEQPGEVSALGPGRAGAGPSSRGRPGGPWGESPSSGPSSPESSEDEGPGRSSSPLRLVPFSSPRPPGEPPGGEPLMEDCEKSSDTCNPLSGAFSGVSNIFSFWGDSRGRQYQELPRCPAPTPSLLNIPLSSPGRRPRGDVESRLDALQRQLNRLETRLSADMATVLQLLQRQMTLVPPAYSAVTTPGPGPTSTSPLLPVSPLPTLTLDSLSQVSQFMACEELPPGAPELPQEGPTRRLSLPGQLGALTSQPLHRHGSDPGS
Chain of hERG channel (Q12809 whole entry): as above

SMILES: CC1=C(C#N)C(=C(C#N)C#N)OC1(C)c1ccc(Cl)cc1Cl (stereo not drawn) [Compound G, 2-dicyanomethylene-3-cyano-4,5-dimethyl-5-[2′,4′-dichlorophenyl]-2,5-dihydrofuran]
- melting point: 239 to 240 °C

SMILES: O=C(O)c1ccccc1Nc1cccc(C(F)(F)F)c1 [flufenamic acid]
- effect on hERG current (tail current) (hERG channel): weak hERG current activator; also recorded: potentiated
- Rb+ flux signal (hERG ion channels [1]): weak hERG ion flux activator; also recorded: small and dose-dependent increase
- modulation index against the mallotoxin DMR signal in HT29 (hERG ion channels [2]; [8]): −90%
- effect on the mallotoxin DMR signal in HT29 cells (in words) (hERG ion channels [2]; [8]): selectively attenuated
- score of modulation index, HT29 coordinate (hERG ion channels [2]): −9
- modulation index against the mallotoxin DMR signal in HEK-hERG (hERG ion channels [3]; [8]): ~+12%
- score of modulation index, HEK-hERG coordinate (hERG ion channels [3]): 1
- DMR signal in HEK-hERG cells (hERG ion channels [4]): robust DMR signals
- DMR signal in HT29 cells (hERG ion channels [5]): robust DMR signals
- class of hERG modulator assigned (hERG ion channels [6]): hERG pathway activator, a label free biosensor hERG activator; also recorded: weak hERG activator

SMILES: CC1=C(C#N)C(=C(C#N)C#N)OC1(C)c1ccc(F)cc1 (stereo not drawn) [C]
- class of hERG modulator assigned (hERG ion channels [7]): label-free biosensor hERG activator

SMILES: O=C(O)c1ccccc1Nc1ccc(CCc2ccc(Cl)c(Cl)c2)cc1 [PD-118057, reference compound]
- class of hERG modulator assigned (hERG ion channels [7]): label-free biosensor hERG activators

SMILES: CC1=C(C#N)C(=C(C#N)C#N)OC1(C)c1ccc(Cl)c(Cl)c1Cl (stereo not drawn) [H]
- class of hERG modulator assigned (hERG ion channels [7]): label-free biosensor hERG activator

SMILES: CN(CCO)c1ccc(/C=C/C2=C(C#N)C(=C(C#N)C#N)OC2(C)c2c(F)c(F)c(F)c(F)c2F)cc1 (stereo not drawn) [J]
- class of hERG modulator assigned (hERG ion channels [7]): label-free biosensor hERG activator

SMILES: COc1ccc2nccc(C(=O)CC[C@@H]3CCN(CC#Cc4cc(F)cc(F)c4F)C[C@@H]3C(=O)O)c2c1 [RPR260243, reference compound]
- class of hERG modulator assigned (hERG ion channels [7]): label-free biosensor hERG activators

SMILES: CC1=C(C#N)C(=C(C#N)C#N)OC1(C)c1ccc(F)cc1F (stereo not drawn) [Compound D, 2-dicyanomethylene-3-cyano-4,5-dimethyl-5-[2′,4′-difluorophenyl]-2,5-dihydrofuran]
- cytotoxicity on cancer cell line HT29 (HT29): did not exhibit cytotoxicity
- cell apoptosis or alteration in cell proliferation rate, HT29 (HT29): did not lead to cell apoptosis or any alteration in cell proliferation rate
- cell apoptosis or alteration in cell proliferation rate, MCF7 (MCF7): did not lead to cell apoptosis or any alteration in cell proliferation rate
- Rb+ flux signal (hERG ion channels [1]): small but detectable increase
- effect on the mallotoxin DMR signal in HT29 cells (in words) (hERG ion channels [2]; [8]): attenuated signal
- effect on the mallotoxin DMR signal in HEK-hERG cells (in words) (hERG ion channels [3]; [8]): attenuated signal
- DMR signal in HEK-hERG cells (hERG ion channels [4]): robust DMR signals
- DMR signal in HT29 cells (hERG ion channels [5]): robust DMR signals

SMILES: N#CC(C#N)=Cc1ccc([N+](=O)[O-])c(O)c1 [AG126, reference compound]
- class of hERG modulator assigned (hERG ion channels [7]): hERG pathway activator

SMILES: CC1=C/C(=C/C=C/C2=C(C#N)C(=C(C#N)C#N)OC2(C)c2ccc(C3CCCCC3)cc2)CC(C)(C)C1 (stereo not drawn) [Compound I]
- class of hERG modulator assigned (hERG ion channels [7]): label-free biosensor hERG activator

SMILES: O=C(O)CC1CCC(c2ccc(-c3cc(C(F)(F)F)[nH]n3)cc2)CC1 (stereo not drawn) [Compound A-935142, reference compound]
- class of hERG modulator assigned (hERG ion channels [7]): label-free biosensor hERG activators

SMILES: CC1=C(C#N)C(=C(C#N)C#N)OC12CCCCC2 [Compound U, 2-dicyanomethylene-3-cyano-4-methyl-5-spiro-cyclohexyl-2,5-dihydrofuran]
- cytotoxicity on cancer cell line HT29 (HT29): did not exhibit cytotoxicity
- cell apoptosis or alteration in cell proliferation rate, HT29 (HT29): did not lead to cell apoptosis or any alteration in cell proliferation rate
- cell apoptosis or alteration in cell proliferation rate, MCF7 (MCF7): did not lead to cell apoptosis or any alteration in cell proliferation rate
- class of hERG modulator assigned (hERG ion channels [7]): label-free biosensor hERG activator

SMILES: CCCCc1ccc(C2(C)OC(=C(C#N)C#N)C(C#N)=C2C)cc1 (stereo not drawn) [Compound E, 2-dicyanomethylene-3-cyano-4,5-dimethyl-5-[4′-n-butylphenyl]-2,5-dihydrofuran]
- cytotoxicity on cancer cell line HT29 (HT29): did not exhibit cytotoxicity
- cell apoptosis or alteration in cell proliferation rate, HT29 (HT29): did not lead to cell apoptosis or any alteration in cell proliferation rate
- cell apoptosis or alteration in cell proliferation rate, MCF7 (MCF7): did not lead to cell apoptosis or any alteration in cell proliferation rate
- class of hERG modulator assigned (hERG ion channels [7]): hERG activators
- Rb+ flux signal (hERG ion channels [1]): small but detectable increase
- effect on the mallotoxin DMR signal in HT29 cells (in words) (hERG ion channels [2]; [8]): attenuated signal
- effect on the mallotoxin DMR signal in HEK-hERG cells (in words) (hERG ion channels [3]; [8]): attenuated signal
- DMR signal in HEK-hERG cells (hERG ion channels [4]): robust DMR signals
- DMR signal in HT29 cells (hERG ion channels [5]): robust DMR signals

SMILES: CC(=O)c1c(O)c(C)c(O)c(Cc2c(O)c3c(c(C(=O)/C=C/c4ccccc4)c2O)OC(C)(C)C=C3)c1O [mallotoxin]
- Rb+ flux signal (hERG ion channels [1]): significant increase
- class of hERG modulator assigned (hERG ion channels [6]): label free biosensor hERG activator

SMILES: O=C(O)c1cccnc1Nc1ccc2c(c1)CN(c1ccc(Cl)c(Cl)c1)C2 [PD-307243, reference compound]
- class of hERG modulator assigned (hERG ion channels [7]): label-free biosensor hERG activators

SMILES: CC1=C(C#N)C(=C(C#N)C#N)OC1(c1ccccc1)C(F)(F)F (stereo not drawn) [Compound B, 2-dicyanomethylene-3-cyano-4-methyl-5-phenyl-5-perfluoromethyl-2,5-dihydrofuran]
- class of hERG modulator assigned (hERG ion channels [7]): potent label-free biosensor hERG activator
- effect on the mallotoxin DMR signal in HT29 cells (in words) (hERG ion channels [2]; [8]): desensitization
- effect on the mallotoxin DMR signal in HEK-hERG cells (in words) (hERG ion channels [3]; [8]): desensitization
- DMR signal in HEK-hERG cells (hERG ion channels [4]): robust DMR signals
- DMR signal in HT29 cells (hERG ion channels [5]): robust DMR signals

SMILES: CC1=C(C#N)C(=C(C#N)C#N)OC1(C)c1ccc(Cl)c(Cl)c1 (stereo not drawn) [Compound F, 2-dicyanomethylene-3-cyano-4,5-dimethyl-5-[3′,4′-dichlorophenyl]-2,5-dihydrofuran]
- class of hERG modulator assigned (hERG ion channels [7]): label-free biosensor hERG activator

SMILES: O=C(Nc1cc(C(F)(F)F)ccc1O)Nc1cc(C(F)(F)F)ccc1O [NS1643]
- class of hERG modulator assigned (hERG ion channels [6]): label-free biosensor hERG activators

SMILES: CN(CCOc1ccc(NS(C)(=O)=O)cc1)CCc1ccc(NS(C)(=O)=O)cc1 [dofetilide]
- Rb+ flux signal (hERG ion channels [1]): suppression

SMILES: O=C(O)c1cc(-c2ccc(F)cc2F)ccc1O [diflunisal, reference compound]
- score of modulation index, HT29 coordinate (hERG ion channels [2]): −9
- score of modulation index, HEK-hERG coordinate (hERG ion channels [3]): 1

SMILES: CC1=C(C#N)C(=C(C#N)C#N)OC1(C)C [A]
- class of hERG modulator assigned (hERG ion channels [7]): label-free biosensor hERG activator
